The source of these data is patent publication US8115031B2, “Anti-inflammatory quinic acid derivatives for oral administration” (priority 2007, dated 2012).

Like-named read-outs stand apart in the source and are kept apart here.

In data set [1] the test system is Gluconobacter oxydans membrane fraction (quinate dehydrogenase). Briefly: degradation by bacterial enzymes (Gluconobacter oxydans membrane fraction). It counts as in vitro ADME. The method, then:
FIG. 11 is a graph illustrating the results of an assay to compare stability of analog KZ-41 with that of quinic acid (QA) to degradation by bacterial enzymes. Percentage of drug remaining is shown on the Y-axis and the time exposed to the enzymes is shown on the X-axis. Results for quinic acid are indicated by the diamonds (♦) and results for KZ-41 are indicated by the squares (▪).
Experiments involving Gluconobacter oxydans were performed as described by Adachi et al. (Adachi, O., et al., (2003) Biosci. Biotechnol. Biochem. 67: 2124-2131). […]
Samples were evaporated to dryness at 30° C. and reconstituted with […] of 1:1 (v/v) mixture of 0.5% ammonia in water and acetonitrile. […] The spray needle voltage was set at 5,000 V, with the turbo gas temperature set at 400° C., and the declustering potential set at 60 V. For this study, samples were analyzed using a Q1 scan for product ion identification, a product ion scan for characterization of metabolites or enzymatic products and by using multiple-reaction monitoring (MRM) for quantitation of QA. Quantitation was performed using one set of MRM transitions: parent QA ions (MH^−/191)® selective daughter ions m/z 127. […] The peak areas, peak ratios, linear regression, assayed concentrations, and other quantitative analysis calculations were conducted Sciex Analyst 1.4 software. […]

Data set [2] is described as follows: levels of compound after oral (PO) or intravenous (IV) administration. It counts as in vivo. Conditions: PO vs IV, FIG. 12. From the text:
FIG. 12 is a graph illustrating the levels of analog KZ-41 when provided orally (PO) or by intravenous administration (IV).
Quinic acids are, however, catabolized by enzymes produced by gut bacteria. In rats, less than 10% of an orally-administered dose of quinic acid is recovered. The inventors therefore set out to produce quinic acid derivatives that retain or improve the beneficial effects of quinic acid, while being effective for oral administration. […] The compounds they have synthesized are not catabolized by bacterial enzymes, but are water-soluble, stable at room temperature, and effective for producing anti-inflammatory effects. […] These properties make the compounds attractive options for therapeutic use as anti-inflammatory agents.

Data set [3] concerns Gluconobacter oxydans membrane fraction (quinate dehydrogenase). The following applies: three hours; previous results (Adachi et al. 2003); cited from earlier work.
The conditions of data set [4]: rats, oral; cited from earlier work.
The subject of data set [5] is leukocyte populations. The following applies: doxorubicin-induced leukopenia, rat; cited from earlier work.

Regarding `CCCNC(=O)C1(O)CC(O)C(O)C(O)C1` (stereo not drawn) [KZ-41, 1,3,4,5-tetrahydroxy-cyclohexane-carboxylic acid propylamide], in data set [1] (enzymes produced by gut bacteria), the “degradation by bacterial enzymes” value is listed as “not degraded”. Besides, in data set [2], the “levels of compound, oral compared with intravenous (IV) administration” value was “available for absorption into the circulation”.
In the case of `O=C(O)[C@]1(O)C[C@@H](O)[C@@H](O)[C@H](O)C1` [quinic acid], in data set [1], the “degradation by bacterial enzymes” value was “degraded by enzymes produced by bacteria in the intestines”. Further, the “depletion of QA by G. oxydans membrane fraction” value in data set [3] is listed as “complete depletion”. In addition, in data set [4], the orally-administered dose recovered entry was “less than 10%”.

B1: Neupogen: a granulocyte colony stimulator commonly used to treat chemotherapy-induced leukopenia (protein, chains of the INN, looked up)
chain: MTPLGPASSLPQSFLLKCLEQVRKIQGDGAALQEKLCATYKLCHPEELVLLGHSLGIPWAPLSSCPSQALQLAGCLSQLHSGLFLYQGLLQALEGISPELGPTLDTLQLDVADFATTIWQQMEELGMAPALQPTQGAMPAFASAFQRRAGGVLVASHLQSFLEVSYRVLRHLAQP
On to B1, for which the “effect on leukocyte populations” value in data set [5] was “increased only the neutrophil fraction”.
